Test results reported in patent US4087613A, “1,3,5- Or 1,3,6-naphthalenetriyltris(sulfonylimino)aryl acids and salts” (American Cyanamid Company, priority 1977, dated 1978).
Where a name gives a salt, the structure may show the parent alone.

Assays:
[1] = system: complement system; details: literature report; cited from earlier work
[2] = system: hereditary angioneurotic edema; details: The New England Journal of Medicine, 286, 808-812 (1972); cited from earlier work
[3] = system: shunt pathway; assay: Test, Code 036 (C-Shunt inhibitor): lysis of human erythrocytes via the shunt pathway activated by cobra venom factor; type: biochemical; parameters: key: Negative; details: serial two-fold dilution assay; higher well number indicates higher activity
Text: (§1) An active inhibitor protects C2 from C1 and C4; (ii) Test, Code 035 (C3-C9 inhibitor) -- This test determines the ability of the late components of human complement (C3-C9) to lyse EAC 142 in the presence of appropriate dilutions of the test compound. An active inhibitor protects EAC 142 from lysis by human C3-C9; (iii) Test, Code 036 (C-Shunt inhibitor) -- In this test human erythrocytes rendered fragile are lysed in autologous serum via the shunt pathway activated by cobra venom factor in the presence of appropriate dilutions of the test compound. Inhibition of the shunt pathway results in failure of lysis; (iv) Forssman Vasculitis Test -- Here, the well known complement dependent lesion, Forssman vasculitis, is produced in guinea pigs by intradermal injection of rabbit anti-Forssman antiserum. The lesion is measured in terms of diameter, edema and hemorrhage and the extent to which a combined index of these is inhibited by prior intraperitoneal injection of the test compound at 200 mg/kg is then reported, unless otherwise stated; (v) Forssman Shock Test -- Lethal shock is produced in guinea pigs by an i.v. injection of anti-Forssman antiserum and the harmonic mean death time of treated guinea pigs is compared with that of simultaneous controls; (vi) Complement Level Reduction Test -- In this test, the above dosed guinea pigs, or others, are bled for serum and the complement level is determined in undiluted serum by the capillary tube method of U.S. Pat. No. 3,876,376 and compared to undosed control guinea pigs; and (vii) Cap 50 Test -- Here, appropriate amounts of the test compound are added to a pool of guinea pig serum in vitro, after which the undiluted serum capillary tube assay referred to above is run. The concentration of compound inhibiting 50% is reported.
(§2) **Activity in wells a serial dilution assay. Higher well number indicates
(§3) higher activity. The serial dilutions are two-fold.

[4] = molecular target: T1, activated human C1 (Homo sapiens, UniProt P09871); assay: Test, Code 026 (C1 inhibitor): protection of human C2 from activated human C1 and C4; type: biochemical; details: serial two-fold dilution assay; higher well number indicates higher activity
T1 construct: fluid-phase human C2 substrate in presence of C4
T1 sequence (P09871 16-688): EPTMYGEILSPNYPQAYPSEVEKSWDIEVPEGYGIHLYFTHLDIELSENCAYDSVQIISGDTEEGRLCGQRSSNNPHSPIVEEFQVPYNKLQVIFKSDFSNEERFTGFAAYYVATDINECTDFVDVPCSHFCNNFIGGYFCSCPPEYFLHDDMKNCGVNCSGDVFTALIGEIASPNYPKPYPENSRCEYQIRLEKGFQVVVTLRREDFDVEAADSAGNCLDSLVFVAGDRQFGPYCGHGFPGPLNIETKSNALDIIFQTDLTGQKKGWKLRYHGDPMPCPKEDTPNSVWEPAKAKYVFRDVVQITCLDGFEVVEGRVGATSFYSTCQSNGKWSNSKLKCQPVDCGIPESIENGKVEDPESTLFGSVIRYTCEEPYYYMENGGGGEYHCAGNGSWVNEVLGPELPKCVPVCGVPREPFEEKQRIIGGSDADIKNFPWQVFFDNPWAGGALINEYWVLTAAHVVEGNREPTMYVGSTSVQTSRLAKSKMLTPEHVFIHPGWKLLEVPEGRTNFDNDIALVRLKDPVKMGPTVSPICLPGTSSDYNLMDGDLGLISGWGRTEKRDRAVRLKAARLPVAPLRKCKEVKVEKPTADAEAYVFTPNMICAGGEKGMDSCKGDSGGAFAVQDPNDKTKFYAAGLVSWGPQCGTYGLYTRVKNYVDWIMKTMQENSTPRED
T1 sequence (P00736 18-705 partner): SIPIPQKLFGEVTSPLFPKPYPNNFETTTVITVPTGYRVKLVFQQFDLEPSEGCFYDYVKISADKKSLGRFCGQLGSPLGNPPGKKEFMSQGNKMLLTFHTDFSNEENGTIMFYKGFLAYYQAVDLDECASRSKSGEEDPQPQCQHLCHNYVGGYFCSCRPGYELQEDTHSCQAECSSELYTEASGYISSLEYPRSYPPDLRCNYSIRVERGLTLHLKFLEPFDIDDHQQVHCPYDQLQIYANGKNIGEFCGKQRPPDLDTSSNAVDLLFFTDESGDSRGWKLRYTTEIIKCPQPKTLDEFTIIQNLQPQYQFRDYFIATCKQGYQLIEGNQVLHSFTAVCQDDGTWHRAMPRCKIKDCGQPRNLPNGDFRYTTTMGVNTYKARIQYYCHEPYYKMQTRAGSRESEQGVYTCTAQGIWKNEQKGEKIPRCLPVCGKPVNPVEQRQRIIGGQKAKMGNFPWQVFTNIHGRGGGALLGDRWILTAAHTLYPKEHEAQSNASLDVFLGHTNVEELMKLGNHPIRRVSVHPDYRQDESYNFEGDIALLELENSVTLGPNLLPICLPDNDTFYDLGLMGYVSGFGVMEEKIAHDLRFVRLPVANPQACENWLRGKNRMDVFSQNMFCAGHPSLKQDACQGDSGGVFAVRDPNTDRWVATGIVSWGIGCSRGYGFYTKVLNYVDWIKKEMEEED
T1 sequence (P02745 23-245 partner): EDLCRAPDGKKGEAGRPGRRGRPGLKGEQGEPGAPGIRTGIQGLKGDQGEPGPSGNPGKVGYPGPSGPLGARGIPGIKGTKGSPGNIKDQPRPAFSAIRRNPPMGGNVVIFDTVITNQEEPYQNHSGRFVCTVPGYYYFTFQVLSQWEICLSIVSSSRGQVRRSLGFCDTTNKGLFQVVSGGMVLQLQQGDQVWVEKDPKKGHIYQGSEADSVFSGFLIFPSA
T1 sequence (P02746 28-253 partner): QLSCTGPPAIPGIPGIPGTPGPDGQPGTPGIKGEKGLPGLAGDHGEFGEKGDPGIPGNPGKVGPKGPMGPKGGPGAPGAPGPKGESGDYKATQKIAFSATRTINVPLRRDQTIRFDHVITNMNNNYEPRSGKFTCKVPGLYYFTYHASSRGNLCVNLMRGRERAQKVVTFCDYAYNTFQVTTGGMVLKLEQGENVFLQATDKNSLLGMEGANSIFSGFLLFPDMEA
T1 sequence (P02747 29-245 partner): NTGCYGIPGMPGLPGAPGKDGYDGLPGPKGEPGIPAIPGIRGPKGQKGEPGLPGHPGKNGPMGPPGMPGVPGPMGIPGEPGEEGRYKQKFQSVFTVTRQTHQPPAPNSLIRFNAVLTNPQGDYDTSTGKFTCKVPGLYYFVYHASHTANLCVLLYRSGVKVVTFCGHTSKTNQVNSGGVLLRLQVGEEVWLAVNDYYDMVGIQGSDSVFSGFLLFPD
Text: as §1, §2, §3

[5] = system: late components of human complement (C3-C9); assay: Test, Code 035 (C3-C9 inhibitor): lysis of EAC 142 by late components of human complement; type: biochemical; parameters: key: Negative; details: serial two-fold dilution assay; higher well number indicates higher activity
Text: as §1, §2, §3

[6] = system: whole complement; assay: Complement Level Reduction Test: whole complement in serum of dosed guinea pigs, capillary tube assay; type: in vivo; details: 200 mg/kg
Text: as §1
With reference to Table I, guinea pigs weighing about 300 g were dosed intravenously (i.v.) or intraperitoneally (i.p.) with 200 mg/kg of the test compound dissolved in saline and adjusted to pH 7-8. […] The serum was tested for whole complement using the capillary tube assay. Percent inhibition was calculated by comparison with simultaneous controls. The results appear in Table I together with results of tests, code 026, 035, 036, Cap 50, % inhibition and Forssman shock.

8-(3-benzamido-4-methylbenzamido)naphthalene-1,3,5-trisulfonic acid [Suramin]
anticomplementary / complement inhibiting effect [1]: competitive inhibitor of the complement system
use in the treatment of hereditary angioneurotic edema [2]: used with success

O=C([O-])c1cccc(NS(=O)(=O)c2ccc3c(S(=O)(=O)Nc4cccc(C(=O)[O-])c4)cc(S(=O)(=O)Nc4cccc(C(=O)[O-])c4)cc3c2)c1.[Na+].[Na+].[Na+] [3,3',3"-[1,3,6-Naphthalenetriyltris(sulfonylimino)]tribenzoic acid trisodium salt]
Shunt Inhibition 036 Wells [3]: N
C1 026 Wells [4]: +3 wells
C-Late 035 Wells [5]: N

O=C(O)c1cc(NS(=O)(=O)c2ccc3c(S(=O)(=O)Nc4ccc(O)c(C(=O)O)c4)cc(S(=O)(=O)Nc4ccc(O)c(C(=O)O)c4)cc3c2)ccc1O [3,3',3"-[1,3,6-Naphthalenetriyltris(sulfonylimino)]tris[6-hydroxybenzoic acid]]
Shunt Inhibition 036 Wells [3]: N
C1 026 Wells [4]: +1 wells
C-Late 035 Wells [5]: N

O=C([O-])c1ccc(NS(=O)(=O)c2ccc3c(S(=O)(=O)Nc4ccc(C(=O)[O-])cc4)cc(S(=O)(=O)Nc4ccc(C(=O)[O-])cc4)cc3c2)cc1.[Na+].[Na+].[Na+] [4,4',4"-[1,3,6-Naphthalenetriyltris(sulfonylimino)]tribenzoic acid trisodium salt]
Shunt Inhibition 036 Wells [3]: N
C-Late 035 Wells [5]: N

O=C(O)c1cc(NS(=O)(=O)c2ccc3c(S(=O)(=O)Nc4cc(C(=O)O)c(O)c(C(=O)O)c4)cc(S(=O)(=O)Nc4cc(C(=O)O)c(O)c(C(=O)O)c4)cc3c2)cc(C(=O)O)c1O [5,5',5"-[1,3,6-Naphthalenetriyltris(sulfonylimino)]-tris[2-hydroxyisophthalic acid]]
Shunt Inhibition 036 Wells [3]: +4 wells
C1 026 Wells [4]: +5 wells
In Vivo Activity (Guinea Pig) % Inhibition, Intraperitoneal, 30 minutes [6]: -69%
In Vivo Activity (Guinea Pig) % Inhibition, Intraperitoneal, 60 minutes [6]: -59%
In Vivo Activity (Guinea Pig) % Inhibition, Intraperitoneal, 120 minutes [6]: -58%
C-Late 035 Wells [5]: +1 wells

O=C([O-])c1cc(NS(=O)(=O)c2ccc3c(S(=O)(=O)Nc4cc(C(=O)[O-])c(C(=O)[O-])c(C(=O)[O-])c4)cc(S(=O)(=O)Nc4cc(C(=O)[O-])c(C(=O)[O-])c(C(=O)[O-])c4)cc3c2)cc(C(=O)[O-])c1C(=O)[O-].[Na+].[Na+].[Na+].[Na+].[Na+].[Na+].[Na+].[Na+].[Na+] [5,5',5"-[1,3,6-Naphthalenetriyltris(sulfonylimino)]tri-1,2,3-benzenetricarboxylic acid nonasodium salt]
C1 026 Wells [4]: +8 wells
In Vivo Activity (Guinea Pig) % Inhibition, Intraperitoneal, 30 minutes [6]: -63%
In Vivo Activity (Guinea Pig) % Inhibition, Intraperitoneal, 60 minutes [6]: -71%
In Vivo Activity (Guinea Pig) % Inhibition, Intraperitoneal, 120 minutes [6]: -71%

O=C([O-])c1cc(NS(=O)(=O)c2ccc3c(S(=O)(=O)Nc4cc(C(=O)[O-])cc(C(=O)[O-])c4)cc(S(=O)(=O)Nc4cc(C(=O)[O-])cc(C(=O)[O-])c4)cc3c2)cc(C(=O)[O-])c1.[Na+].[Na+].[Na+].[Na+].[Na+].[Na+] [5,5',5"-[1,3,6-Naphthalenetriyltris(sulfonylimino)]triisophthalic acid hexasodium salt]
In Vivo Activity (Guinea Pig) % Inhibition, Intraperitoneal, 30 minutes [6]: -67%
In Vivo Activity (Guinea Pig) % Inhibition, Intraperitoneal, 60 minutes [6]: -79%
In Vivo Activity (Guinea Pig) % Inhibition, Intraperitoneal, 120 minutes [6]: -84%
C-Late 035 Wells [5]: N

O=C(O)c1cc(NS(=O)(=O)c2ccc3c(S(=O)(=O)Nc4cc(C(=O)O)cc(C(=O)O)c4)cc(S(=O)(=O)Nc4cc(C(=O)O)cc(C(=O)O)c4)cc3c2)cc(C(=O)O)c1 [5,5',5"-[1,3,6-Naphthalenetriyltris(sulfonyliminol)]triisophthalic acid]
Shunt Inhibition 036 Wells [3]: +2 wells
C1 026 Wells [4]: +6 wells
In Vivo Activity (Guinea Pig) % Inhibition, Intraperitoneal, 30 minutes [6]: -84%
In Vivo Activity (Guinea Pig) % Inhibition, Intraperitoneal, 60 minutes [6]: -88%
In Vivo Activity (Guinea Pig) % Inhibition, Intraperitoneal, 120 minutes [6]: -96%
C-Late 035 Wells [5]: N

CN(c1cc(C(=O)O)cc(C(=O)O)c1)S(=O)(=O)c1ccc2c(S(=O)(=O)N(C)c3cc(C(=O)O)cc(C(=O)O)c3)cc(S(=O)(=O)N(C)c3cc(C(=O)O)cc(C(=O)O)c3)cc2c1 [5,5',5"-[1,3,6-Naphthalenetriyltris(sulfonylmethylimino)]triisophthalic acid hexasodium salt]
Shunt Inhibition 036 Wells [3]: N
C1 026 Wells [4]: +3 wells
C-Late 035 Wells [5]: N

Nc1ccc2cc(S(=O)(=O)O)cc(O)c2c1N=Nc1ccc(NC(=O)Nc2ccc(N=Nc3c(N)ccc4cc(S(=O)(=O)O)cc(O)c34)c(S(=O)(=O)O)c2)cc1S(=O)(=O)O [chlorazol fast pink, 3,3'-ureylenebis-[6-(2-amino-8-hydroxy-6-sulfo-1-naphthylazo)]benzenesulfonic acid, tetrasodium salt]
anticomplementary / complement inhibiting effect [1]: anticomplementary effect

NCCCCCC(=O)O [epsilon-aminocaproic acid]
use in the treatment of hereditary angioneurotic edema [2]: used with success

NC[C@H]1CC[C@H](C(=O)O)CC1 [tranexamic acid]
use in the treatment of hereditary angioneurotic edema [2]: used with success

heparin
anticomplementary / complement inhibiting effect [1]: anticomplementary effect
